The nature of data set [1]: Cytotoxicity against MDCK cells. The format is cell-based, Canis lupus familiaris. The note with it: dog.
Data set [2] is described as follows: Inhibition of influenza B virus (B/Brisbane/60/2008) neuraminidase using MUNANA substrate pre-incubated for 30 mins before substrate addition by fluorometric assay.
Data set [3] is described as follows: Selectivity index, ratio of CC50 for MDCK cells to IC50 for influenza A virus (A/Perth/16/2009(H3N2)). Format: functional.

SMILES strings stand for the structures.

Regarding `O=c1cc(-c2ccc(O)c(O)c2)oc2cc(O[C@@H]3O[C@H](CO)[C@@H](O)[C@H](O)[C@H]3O)cc(O)c12` [GALUTEOLIN], the CC50 in data set [1] was > 446 µM. This compound yielded an IC50 in data set [2] of 57.2 µM. In data set [3], the “Ratio CC50/IC50” value is >6.7.
The like results for `O=c1c(O[C@@H]2O[C@H](CO)[C@H](O)[C@H](O)[C@H]2O)c(-c2ccc(O)c(O)c2)oc2cc(O)cc(O)c12` [HYPEROSIDE] were, in that order, > 431 µM, 88.1 µM and >6.9.
In the case of `O=c1c(O[C@@H]2O[C@H](CO)[C@@H](O)[C@H](O)[C@H]2O)c(-c2ccc(O)c(O)c2)oc2cc(O)cc(O)c12` [ISOQUERCETIN], the CC50 in data set [1] is > 431 µM. Besides, in data set [2], the IC50 stood at 384 µM. For the same compound, in data set [3], the “Ratio CC50/IC50” value was >1.2.
The like results for `O=c1c(O)c(-c2ccc(O)cc2)oc2cc(O)cc(O)c12` [KAEMPFEROL] were, in that order, 581 µM, 90.8 µM and 6.8.
In data set [2], `CCOC(=O)C1=C[C@@H](OC(CC)CC)[C@H](NC(C)=O)[C@@H](N)C1` [OSELTAMIVIR] had an IC50 of 0.0454 µM. That is a double-digit nanomolar value.
Regarding `C[C@@H]1O[C@@H](Oc2c(-c3ccc(O)c(O)c3)oc3cc(O)cc(O)c3c2=O)[C@H](O)[C@H](O)[C@H]1O` [QUERCITRIN], the CC50 in data set [1] was > 446 µM. Also, in data set [2], the midpoint of inhibition, the IC50, lay at 112 µM. For the same compound, the “Ratio CC50/IC50” value in data set [3] is >4.1.
The like results for `C[C@@H]1O[C@@H](OC[C@H]2O[C@@H](Oc3c(-c4ccc(O)c(O)c4)oc4cc(O)cc(O)c4c3=O)[C@H](O)[C@@H](O)[C@@H]2O)[C@H](O)[C@H](O)[C@H]1O` [RUTIN] were, in that order, > 328 µM, 105 µM and >3.4.
